Experimental data from patent US8440830B2, “Tetrahydro-fused pyridines as histone deacetylase inhibitors” (4SC AG, priority 2007, dated 2013).
Where two headings read alike, the source gives them in different places.

Assays:
Format in all cases: cell-based
[1] = test system: histone H3 hyperacetylation in HeLa cervical carcinoma cells; test: Cellular histone H3 hyperacetylation assay; settings: Homo sapiens, 24 h treatment
Procedure, shortened: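 HeLa cells treated with compound for 24 h, then fixed, permeabilized and immunostained for acetylated histone H3 (K1-20) with an Alexa Fluor 488 secondary. High-content imaging scored the percentage of cells with nuclear fluorescence; EC50 from concentration-effect curves by non-linear regression.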

[2] = test system: fully transformed malignant cancer cell lines; test: Anti-proliferative activity, selection of cell lines (Alamar Blue); settings: Homo sapiens, 72 h, mean over cell lines, read-out: Mean IC50 values as calculated for fully malignant cancer cell lines
Procedure: (§1) The anti-proliferative activity of the histone deacetylase inhibitory compounds as described herein, is evaluated using the following cell lines: HeLa and HeLa-KB (cervical carcinoma), H460 (non small cell lung cancer), A549 (non-small cell lung cancer), MCF7 (breast carcinoma), MCF10A (normal, non tumorigenic breast epithelial), MDA-MB468 (breast carcinoma), MDA-MB435 (breast carcinoma), MDA-MB231 (breast carcinoma), SKBR-3 (breast carcinoma), SKOV-3 (ovarial carcinoma), A-2780 (ovarial carcinoma), RKO (colon carcinoma), HCT-15 (colon carcinoma), HCT-116 (colon carcinoma), PC3 (prostate carcinoma), BPH1 (benign prostate hyperplasia), AsPC1 (pancreatic carcinoma), Ca127 (tongue carcinoma), A-431 (vulva carcinoma), Hec1A (endometrial carcinoma), Saos-2 (osteosarcoma), U87MG (glioblastoma), WM266-4 (melanoma), K562 (chronic myeloid leukemia), EOL1 (acute hypereosinophilic myeloid leukemia), CCRF-CEM and CCRF-CEM VCR1000 (acute lymphoblastic leukemia sensitive and resistant towards Vincristine). For quantification of cellular proliferation/living cells the Alamar Blue (Resazurin) cell viability assay is applied (O'Brien et al. Eur J Biochem 267, 5421-5426, 2000). In this assay Resazurin is reduced to the fluorescent resorufine by cellular dehydrogenase activity, correlating with viable, proliferating cells. The examples are dissolved as 20 mM solutions in dimethylsulfoxide (DMSO) and subsequently diluted in semi-logarithmic steps. Cell lines are seeded at respective density into 96 well flat bottom plates in a volume of 200 μl per well. 24 h after seeding 1 μl each of the compound dilutions are added into each well of the 96 well plate. Each compound dilution is tested as quadruplicates. Wells containing untreated control cells are filled with 200 μl DMEM medium containing 0.5% v:v DMSO. The cells are then incubated with the compounds for 72 h at 37° C. in a humidified atmosphere containing 5% carbon dioxide. To determine the viability of the cells, 20 μl of a Resazurin solution (Sigma; 90 mg/l) are added. After 4 h incubation at 37° C. the fluorescence is measured at an extinction of λ=544 nm and an emission of λ=590 nm. For the calculation of the cell viability the emission value from untreated cells is set as 100% viability and the emission rates of treated cells are set in relation to the values of untreated cells. Viabilities are expressed as % values. The corresponding IC50 values of the compounds for cytotoxic activity are determined from the concentration-effect curves by means of non-linear regression.
The anti-proliferative activity of compounds from examples 1, 2, 3, 12 and 150 is evaluated by using a broad selection of non-malignant cell lines and fully transformed malignant cancer cell lines.

[3] = test system: RKO colon carcinoma cells with conditional p21^waf1 expression; test: Cell cycle dependent cytotoxicity, RKO exop21 cell system; settings: Homo sapiens, 72 h
Procedure: as §1
For determination of cell-cycle dependent cytotoxicity, the RKO exop21 cell system is applied (Schmidt et al. Oncogene 19: 2423-2429, 2000). Briefly, RKO cells with/without p21^waf1 expression (2×10^4 cells/well induced, 6×10^3 cells/well not induced) are treated with the compounds for 72 h and metabolic activity quantified as described before. The expression of p21^waf1 was induced by treatment with Pronasterone A, causing a complete proliferation arrest of RKO cells in the G1 and G2 phases of the cell division cycle.

[4] = read-out: EC50, induction of histone H3 hyperacetylation
[5] = read-out: −lg EC50, induction of histone H3 hyperacetylation
[6] = RKO arrested, p21^waf1 expressed, read-out: RKO arrested (p21^waf1 expressed) IC50
[7] = RKO proliferating, p21^waf1 not induced, read-out: RKO proliferating IC50

| EC50 [1, 4] [µM] | EC50 [1, 5] [µM] | IC50 [2] [µM] | SMILES | IC50 [3, 6] [µM] | IC50 [3, 7] [µM] |
| --- | --- | --- | --- | --- | --- |
| 0.15 to 15 | 0.251 to 15.8 | 2.4 to 5.4 | Nc1ccccc1NC(=O)c1nc2c(s1)CN(C(=O)Nc1ccc(-c3ccccc3)cc1)CC2 [Example 1, N^2-(2-aminophenyl)-N5-biphenyl-4-yl-6,7-dihydro[1,3]thiazolo[5,4-c]pyridine-2,5(4H)-dicarboxamide] | 1.1 to 4.9 | 1.1 to 4 |
| 0.15 to 15 | 0.251 to 15.8 | 2.4 to 5.4 | Nc1ccccc1NC(=O)c1nc2c(s1)CN(C(=O)Nc1cnc3ccccc3c1)CC2 [Example 12, N^2-(2-aminophenyl)-N5-quinolin-3-yl-6,7-dihydro[1,3]thiazolo[5,4-c]pyridine-2,5(4H)-dicarboxamide] | 1.1 to 4.9 | 1.1 to 4 |
| 0.15 to 15 | 0.251 to 15.8 | 2.4 to 5.4 | COc1ccc(NC(=O)N2CCc3nc(C(=O)Nc4ccccc4N)sc3C2)cc1 [Example 3, N^2-(2-aminophenyl)-N5-(4-methoxyphenyl)-6,7-dihydro[1,3]thiazolo[5,4-c]pyridine-2,5(4H)-dicarboxamide] | 1.1 to 4.9 | 1.1 to 4 |
| 0.15 to 15 | 0.251 to 15.8 | 2.4 to 5.4 | CN(C)c1ccc(NC(=O)N2CCc3nc(C(=O)Nc4ccccc4N)sc3C2)cc1 [Example 2, N^2-(2-aminophenyl)-N5-[4-(dimethylamino)phenyl]-6,7-dihydro[1,3]thiazolo[5,4-c]pyridine-2,5(4H)-dicarboxamide] | 1.1 to 4.9 | 1.1 to 4 |
